Laboratory results taken from US12116397B2, “IL-IR-I binding polypeptide” (Swedish Orphan Biovitrum AB (publ), priority 2017, dated 2024).

How the values were obtained:
[1] = test system: Normal Human Dermal Fibroblasts (NHDF) cells; experiment: Inhibition of IL-1β induced IL-6 production in NHDF cells; assay type: cell-based; conditions: 3.4 pM IL-1β
Procedure: The inhibitory effect of IL-1R-I binding fusion proteins on IL-1β induced IL-6 production in Normal Human Dermal Fibroblasts (NHDF) cells was monitored.
Cells were seeded three days prior to treatment with proteins. […] Harvested medium was diluted 41× before IL-6 content was analyzed using a human IL-6 ELISA kit (R&D Systems) according to manufacturer's recommendations. Data was analyzed using XLfit and IC50 values were calculated from concentration-response curves.

human whole blood = experiment: Inhibition of IL-1β induced IL-6 production in whole blood; assay type: cell-based; conditions: 100 pM IL-1β
Procedure: The inhibitory effect of IL-1R-I binding fusion proteins on IL-1β induced IL-6 production in whole blood from individual donors was measured.
Blood from healthy donors was collected 1-3 hours prior to treatment with the IL-1R-I binding fusion proteins (SEQ ID NO:1648-1649). Proteins (IL-1R-I binding fusion proteins or anakinra) were diluted to starting concentration of 500 nM in serum free RPMI (ThermoFisher Scientific, RPMI 1640 Medium, GlutaMAX™ Supplement, Cat. No.: 61870010) and subsequently serially diluted 1:3 in a ten-step dilution series resulting in a concentration range of 500 nM to 25 pM. The IL-1R-I binding fusion polypetides or anakinra were tested in presence of a challenge dose of 100 pM IL-1β. The blood was incubated for 21-23 hours with proteins, followed by harvesting of plasma. Harvested plasma was diluted 2× and IL-6 content was analyzed by using a human IL-6 kit (V-PLEX Human IL-6 Kit Human interleukin-6, MSD) according to manufacturer's recommendations.
IL-6 concentrations (pg/ml) were calculated using a standard curve (provided by the kit) and data was analyzed using XLfit and IC50 values were calculated from the concentration-response curves.

In the case of “Kineret: recombinant form of endogenous IL-1Ra denoted anakinra (Kineret)”, the “IL-1β induced IL-6 release from NHDF cells” value [1] is reported as “reduced in a concentration-dependent manner” and the “IL-1β induced IL-6 release in human whole blood” value (human whole blood) is reported as “reduced in a concentration-dependent manner”.
